A short description of data set [1]: Cytotoxicity against LPS-induced mouse RAW264.7 cells assessed as cell viability at 1 uM incubated for 24 hrs by MTT assay relative to control. The data set is classed as cell-based. Conditions: LPS-induced RAW264.7 cells, read-out: Activity. (In general: Tetrazolium assays rely on reduction of a dye to a coloured formazan, in cell work by metabolically active cells.)

Data set [2] has as its system RAW264.7. Nature of the data set: Anti-inflammatory activity in mouse RAW264.7 cells assessed as inhibition of LPS-induced NO production at 1 uM preincubated for 1 hr followed by LPS addition and measured after 24 hrs by Griess reagent-based assay relative to control. It is filed as functional. (The Griess reaction detects nitrite, a stable product of nitric oxide.)

In data set [3] the test system is RAW264.7. Nature of the data set: Anti-inflammatory activity in mouse RAW264.7 cells assessed as inhibition of LPS-induced PGE2 production at 1 uM preincubated for 1 hr followed by LPS addition and measured after 24 hrs by EIA relative to control. It is filed as functional.
The test system of data set [4] is RAW264.7. Nature of the data set: Anti-inflammatory activity in mouse RAW264.7 cells assessed as inhibition of LPS-induced PGE2 production preincubated for 1 hr followed by LPS addition and measured after 24 hrs by EIA. The data set is classed as functional, cell-based.
Data set [5] concerns RAW264.7. Nature of the data set: Anti-inflammatory activity in mouse RAW264.7 cells assessed as inhibition of LPS-induced PGE2 production at 40 nM preincubated for 1 hr followed by LPS addition and measured after 24 hrs by EIA. The data set is classed as functional, cell-based.
For data set [6], the system named is RAW264.7. In words: Anti-inflammatory activity in mouse RAW264.7 cells assessed as inhibition of LPS-induced IL-6 production at 1 uM preincubated for 1 hr followed by LPS addition and measured after 24 hrs by EIA relative to control. It is filed as functional.
In data set [7] the test system is RAW264.7. In words: Anti-inflammatory activity in mouse RAW264.7 cells assessed as inhibition of LPS-induced TNFalpha production at 1 uM preincubated for 1 hr followed by LPS addition and measured after 24 hrs by EIA relative to control. It is filed as functional.
Data set [8] has as its system RAW264.7. In words: Anti-inflammatory activity in mouse RAW264.7 cells assessed as inhibition of LPS-induced IL-1beta production at 1 uM preincubated for 1 hr followed by LPS addition and measured after 24 hrs by EIA relative to control. The data set is classed as functional.
Data set [9] deals with Mitogen-activated protein kinase 14 (Mus musculus) (UniProt P47811). Nature of the data set: Inhibition of p38alpha MAPK in LPS-stimulated mouse RAW264.7 cells assessed as reduction in MK2 phosphorylation at 5 uM incubated for 120 mins by Western blot analysis. It is filed as cell-based.
Data set [10] has as its system RAW264.7. In words: Anti-inflammatory activity in mouse RAW264.7 cells assessed as inhibition of LPS-induced PGE2 production at 10 nM preincubated for 1 hr followed by LPS addition and measured after 24 hrs by EIA relative to control. It is filed as functional.
For data set [11], the target named is Mitogen-activated protein kinase 14 (Mus musculus) (UniProt P47811). In words: Inhibition of p38alpha MAPK in LPS-stimulated mouse RAW264.7 cells assessed as reduction in p38alpha MAPK phosphorylation at 5 uM incubated for 60 mins by Western blot analysis. It is filed as cell-based. (In western blotting, separated proteins are transferred to a membrane and probed.)

For data set [12] the target is unchanged. Nature of the data set: Inhibition of p38alpha MAPK in LPS-stimulated mouse RAW264.7 cells assessed as reduction in MK2 phosphorylation at 5 uM by Western blot analysis. It is filed as cell-based. Conditions: TDE = time-dependent effect.
The test system of data set [13] is RAW264.7. In words: Effect on NO production in mouse RAW264.7 cells assessed as inhibition of NO production at 2 to 5 uM incubated for 24 hrs by Griess reagent-based assay. It is filed as cell-based. To be noted: raw264.7, 24 h.
Data set [14] relates to RAW264.7. Nature of the data set: Anti-inflammatory activity in mouse RAW264.7 cells assessed as inhibition of LPS-induced NO production at 0.5 uM preincubated for 1 hr followed by LPS addition and measured after 24 hrs by Griess reagent-based assay. The data set is classed as functional, cell-based.
The test system of data set [15] is RAW264.7. In words: Anti-inflammatory activity in mouse RAW264.7 cells assessed as inhibition of LPS-induced NO production preincubated for 1 hr followed by LPS addition and measured after 24 hrs by Griess reagent-based assay. The data set is classed as functional, cell-based.
For data set [16], the system named is RAW264.7. Nature of the data set: Anti-inflammatory activity in mouse RAW264.7 cells assessed as inhibition of LPS-induced PGE2 production at 0.2 uM preincubated for 1 hr followed by LPS addition and measured after 24 hrs by EIA. It is filed as functional, cell-based.
For data set [17], the system named is RAW264.7. Nature of the data set: Anti-inflammatory activity in mouse RAW264.7 cells assessed as inhibition of LPS-induced IL-6 production preincubated for 1 hr followed by LPS addition and measured after 24 hrs by EIA. The data set is classed as functional, cell-based.
In data set [18] the test system is RAW264.7. In words: Anti-inflammatory activity in mouse RAW264.7 cells assessed as inhibition of LPS-induced IL-6 production at 1 to 5 uM preincubated for 1 hr followed by LPS addition and measured after 24 hrs by EIA. It is filed as functional, cell-based.
Data set [19] addresses Mitogen-activated protein kinase 14 (Mus musculus) (UniProt P47811). In words: Inhibition of p38alpha MAPK in LPS-stimulated mouse RAW264.7 cells assessed as reduction in p38alpha MAPK phosphorylation at 4 uM incubated for 60 mins by Western blot analysis. It is filed as cell-based.
Data set [20] concerns RAW264.7. In words: Effect on IL-6 production in mouse RAW264.7 cells assessed as increase in IL-6 production up to 5 uM measured after 1 hr by EIA. It is filed as ADME, cell-based. To be noted: raw264.7, 1 h.
Data set [21] has as its system RAW264.7. In words: Anti-inflammatory activity in mouse RAW264.7 cells assessed as inhibition of LPS-induced TNFalpha production preincubated for 1 hr followed by LPS addition and measured after 24 hrs by EIA. The data set is classed as functional, cell-based.
The test system of data set [22] is RAW264.7. Nature of the data set: Anti-inflammatory activity in mouse RAW264.7 cells assessed as inhibition of LPS-induced TNFalpha production at 0.5 uM preincubated for 1 hr followed by LPS addition and measured after 24 hrs by EIA. It is filed as functional, cell-based.
The test system of data set [23] is RAW264.7. In words: Effect on TNF-alpha production in mouse RAW264.7 cells assessed as increase in TNFalpha production at up to 5 uM measured after 1 hr by EIA. It is filed as ADME, cell-based. Conditions: raw264.7, 1 h.
Data set [24] deals with Mitogen-activated protein kinase 14 (Mus musculus) (UniProt P47811). Nature of the data set: Inhibition of p38alpha MAPK in LPS-stimulated mouse RAW264.7 cells assessed as reduction in p38alpha MAPK phosphorylation incubated for 60 mins by Western blot analysis. It is filed as cell-based.
Data set [25] shares this target. Nature of the data set: Inhibition of p38alpha MAPK in LPS-stimulated mouse RAW264.7 cells assessed as reduction in p38alpha MAPK phosphorylation at 2 uM incubated for 60 mins by Western blot analysis. The data set is classed as cell-based.
For data set [26], the target named is T1, Mitogen-activated protein kinase 14 (Mus musculus, UniProt P47811). Nature of the data set: Inhibition of p38alpha MAPK in unstimulated mouse RAW264.7 cells assessed as reduction in p38alpha MAPK phosphorylation at 4 uM incubated for 60 mins by Western blot analysis. It is filed as cell-based. Conditions: RAW264.7, mouse, 1 h.
Data set [27] has as its target T1, Mitogen-activated protein kinase 14. In words: Inhibition of p38alpha MAPK in unstimulated mouse RAW264.7 cells assessed as reduction in p38alpha MAPK phosphorylation at 2 uM incubated for 60 mins by Western blot analysis. It is filed as cell-based. Conditions: raw264.7, 1 h.
Data set [28] concerns RAW264.7. In words: Anti-inflammatory activity in mouse RAW264.7 cells assessed as inhibition of LPS-induced IL-6 production at 0.5 uM preincubated for 1 hr followed by LPS addition and measured after 24 hrs by EIA. It is filed as functional, cell-based.
In data set [29] the test system is RAW264.7. In words: Anti-inflammatory activity in mouse RAW264.7 cells assessed as remaining LPS-induced NO production at 40 uM preincubated for 1 hr followed by LPS addition and measured after 24 hrs by Griess reagent-based assay relative to control. The data set is classed as functional.

The source of these data is ChEMBL document CHEMBL4359854, “Repurposing mosloflavone/5,6,7-trimethoxyflavone-resveratrol hybrids: Discovery of novel p38-α MAPK inhibitors as potent interceptors of macrophage-dependent production of proinflammatory mediators” (Eur J Med Chem, 2019).

Active and inactive are the calls of the source. The calls are words filed in the database; no cut-off is given here.

Sequence of Mitogen-activated protein kinase 14 (Mus musculus) (P47811 whole entry): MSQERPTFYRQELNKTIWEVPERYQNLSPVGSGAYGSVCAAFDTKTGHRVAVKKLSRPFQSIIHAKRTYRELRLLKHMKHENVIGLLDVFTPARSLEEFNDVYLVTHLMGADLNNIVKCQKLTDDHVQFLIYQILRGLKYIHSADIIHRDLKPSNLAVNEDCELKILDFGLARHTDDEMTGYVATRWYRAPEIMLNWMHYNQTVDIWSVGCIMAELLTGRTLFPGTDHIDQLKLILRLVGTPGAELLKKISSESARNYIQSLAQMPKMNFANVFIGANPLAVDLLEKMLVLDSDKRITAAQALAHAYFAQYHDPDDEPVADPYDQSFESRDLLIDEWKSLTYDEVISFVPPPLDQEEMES
T1 sequence (P47811 whole entry): as above

Regarding `COc1ccccc1C(=O)Nc1cccc(-c2cc(=O)c3c(O)c(OC)c(OC)cc3o2)c1`, the viability at 24 h, 1 µM in [1] was found to be 90.9%. In addition, the inhibition (commonly the change of the read-out against control, counted positive when it falls) at 1 µM with RAW264.7 [2] is 2.62%; in the data set on RAW264.7 [3], 82.8%; with RAW264.7 [6] it was -9.4%; in the data set on RAW264.7 [7] it was -9.74%; with RAW264.7 [8] it was 41.3%. For the same compound, in the data set on RAW264.7 [4], the IC50 (usually the concentration at which inhibition is half-maximal) was 310 nM. In addition, in the data set on RAW264.7 [4], the inhibition result is “Dose-dependent effect”. The inhibition result (with RAW264.7 [5]; in data set [9]) was “Active” each time.
For the compound `CS(=O)(=O)Nc1ccc([N+](=O)[O-])cc1OC1CCCCC1` [NS-398], the inhibition at 0.01 µM in the data set with RAW264.7 [10] came out at 58%.
Turning to `COc1ccccc1C(=O)Nc1ccc(-c2cc(=O)c3c(OC)c(OC)c(OC)cc3o2)cc1`, the viability at 24 h, 1 µM in [1] turned out to be 108%. Besides, the inhibition at 1 µM in the data set with RAW264.7 [2] was 7.04%; with RAW264.7 [3] it was 78.8%; in the data set on RAW264.7 [6] it was -50%; in the data set with RAW264.7 [7], -51.3%; in the data set on RAW264.7 [8], 14.5%. The IC50 in the data set with RAW264.7 [4] was 590 nM. Further, the values for the inhibition result (in the data set with RAW264.7 [4]; in [12]) were “Dose-dependent effect” and “Tde”, respectively. Also, the inhibition entry (with RAW264.7 [5]; in [11]) was “Active” throughout.
On to `COc1cc(NC(=O)c2cccc(-c3cc(=O)c4c(O)c(OC)c(OC)cc4o3)c2)cc(OC)c1OC`, for which the Activity result in the data set on RAW264.7 [13], with RAW264.7 [20] and with RAW264.7 [23] was “Non-Toxic” each time. In addition, the inhibition result (with RAW264.7 [14]; with RAW264.7 [18]; with RAW264.7 [22]; in data set [25]) was “Active” in each case. Besides, in [1], the viability at 24 h, 1 µM was found to be 144%. Besides, the inhibition at 1 µM in the data set with RAW264.7 [2] came to 44.8%; in the data set with RAW264.7 [3] it was 35.7%; with RAW264.7 [6], 53.5%; with RAW264.7 [7], 29.4%; with RAW264.7 [8], 41%. Also, the concentration for half-maximal inhibition (IC50) in the data set on RAW264.7 [15] amounted to 2110 nM; in the data set on RAW264.7 [4], 980 nM. Besides, the inhibition entry is “Dose-dependent effect” in the data set with RAW264.7 [15]; “Dose-dependent effect” in the data set on RAW264.7 [4]; “Dose-dependent effect” in the data set with RAW264.7 [17]; 100% in data set [19]; “Dose-dependent effect” in the data set on RAW264.7 [21]; “Dose-dependent effect” in data set [24]. In the data set on RAW264.7 [16], the inhibition result is “inactive”. Also, the inhibition at 4 µM in data set [26] came to 100%. For the same compound, in data set [27], the “inhibition (INH)” value was “Active”.
Regarding `COc1cc(NC(=O)c2cccc(-c3cc(=O)c4c(OC)c(OC)c(OC)cc4o3)c2)cc(OC)c1OC`, the Activity entry with RAW264.7 [13], with RAW264.7 [20] and in the data set with RAW264.7 [23] was “Non-Toxic” each time. The inhibition result in the data set with RAW264.7 [14] and in the data set with RAW264.7 [16] was “inactive” each time. The viability at 24 h, 1 µM in [1] was found to be 113%. For the same compound, the inhibition at 1 µM with RAW264.7 [2] was found to be 48.3%; in the data set with RAW264.7 [3] it was 11.2%; in the data set on RAW264.7 [6], 31.9%; with RAW264.7 [7] it was 28.6%; in the data set on RAW264.7 [8], 143%. For the same compound, the IC50 in the data set on RAW264.7 [15] was 2750 nM; with RAW264.7 [4], 3400 nM. Moreover, the inhibition entry in the data set on RAW264.7 [15], in the data set on RAW264.7 [4], with RAW264.7 [17] and in the data set on RAW264.7 [21] was “Dose-dependent effect” throughout. Further, the inhibition entry with RAW264.7 [28], in the data set on RAW264.7 [18] and in the data set on RAW264.7 [22] was “Active” each time.
For `CC(=N)NCCCC[C@H](N)C(=O)O` [L-NIL], the Activity in the data set with RAW264.7 [29] is given as 29 - 35%.
